The values below come from paper PMC9243584, “Population Pharmacokinetics of Colistin Sulfate in Critically Ill Patients: Exposure and Clinical Efficacy” (Frontiers in Pharmacology, 2022).

For data set [1] the following is noted: critically ill patients, ref Cheah et al., 2015, cited from earlier work.
Data set [2] has as its system isolates with lower MIC values (≤2 μg/ml). The following applies: isolates with MIC ≤2 μg/ml for both compounds; ref Sader et al., 2015; cited from earlier work. The source says:
(§1) It should be noted that the currently used colistin sulfate in China was reapproved for clinical use by the Chinese National Medical Products Administration (NPMA) in 2018. Thus, modern pharmacological data including the clinical efficacy and side effects have not been reported. […] The clinical efficacy of colistin sulfate in the current study was similar to the efficacy of polymyxin B reported by [Lu et al. (2021]), who performed a retrospec ...

Data set [3] can be described thus: Population pharmacokinetic modeling (NONMEM) of intravenous colistin sulfate from plasma concentrations in critically ill patients. It is filed as in vivo, human. The source says:
This retrospective, observational study was designed in accordance with the Declaration of Helsinki and was approved by the Ethical Committees of the First Affiliated Hospital of Wenzhou Medical University, China ([2022]036). Adult patients receiving colistin sulfate for confirmed multi-resistant Gram-negative bacterial infections from January 2020 to December 2021 at the First Affiliated Hospital of Wenzhou Medical University were selected. The inclusion criteria were as follows: a) ≥18 years of age; b) receiving colistin sulfate (Shanghai New Asia Pharmaceuticals, Shanghai, China) for at least 3 days; and c) at least one plasma concentration of colistin was collected.
The decision to administer colistin sulfate and its dosing regimen (dose amount, dosing interval, ways of administration, and treatment duration) was made by the attending physician. A loading dose of 1 million IU and a daily dose of 1.5 million IU divided into 2–3 times (maintenance dose) administered using an intravenous drip was recommended by the label sheet of colistin sulfate. In addition, for patients with pulmonary infection, inhalation of colistin sulfate (250,000 IU q12 h) was combinedly used; for patients with intracranial infection, colistin sulfate (50,000 IU q24 h) administered by the intraventricular/intrathecal (IVT/IT) route was combinedly used.
Plasma samples of colistin sulfate were collected after reaching the steady-state (attained after at least six doses). Dates and exact time of colistin sulfate administration and plasma sample collection were able to be indexed from the medical records. Plasma samples were separated by centrifugation for 5 min at 15,000 rpm immediately after sampling. The quantification of plasma concentration of colistin sulfate was performed using a validated high-performance liquid chromatography-tandem mass spectrometry assay ([Gobin et al., 2010]). The calibration ranges for colistin were 0.1–20 μg/ml. The method validations including calibration curve, selectivity, accuracy, precision, matrix effect, recovery, and stability met the requirement of FDA principles.
PopPK analysis was performed using the nonlinear mixed-effects modeling program NONMEM (version 7.4, Icon Development Solutions, Ellicott City, MD, USA) and Pirana (version 2.9.7). R (version 3.6.0) and Xpose (version 4.3.2) software packages were applied to generate diagnostic plots.
One- and two-compartment structural models with first-order elimination were explored for the concentration–time profiles of colistin sulfate. Between-subject variability (BSV) was assessed using an exponential function. Residual variability was assessed using additive, proportional, or combined (additive plus proportional) error models. The base model was selected based on the visual inspection of diagnostic plots and goodness-of-fit criteria, including precision and plausibility of parameter estimation and improvement of the objective function value (OFV).
Relationships between individual empirical Bayesian estimates of PK parameters and patient covariates were examined visually. Covariates were included using a stepwise forward selection process until no further decrease in OFV was observed. All of the significant covariates were then incorporated into the basic model to construct a full model. The included covariates were further assessed using backward elimination. The additional criterion for retaining the covariate in the final model was the decrease in the unexplained BSV and increase in PK parameter estimate precision.
Goodness-of-fit plots, nonparametric bootstrap, and visual predictive check were performed to evaluate the final model and parameter estimates. A nonparametric bootstrap procedure was conducted to assess the performance and stability of the final model. Random sampling with replacement was utilized to generate 1,000 replicate datasets using the individual as the sampling unit. […]

Data set [4] can be described thus: Acute kidney injury (RIFLE criteria) and colistin sulfate-related nephrotoxicity (Naranjo criteria). The settings on record: 42 patients, not considered colistin's nephrotoxicity by Naranjo criteria. In kind it is in vivo, human. The method, then: Acute kidney injury (AKI) during the treatment of colistin sulfate was assessed using RIFLE criteria. AKI was defined as a 1.5-fold or more increase in serum creatinine and/or a decrease in the glomerular filtration rate (GFR) of 25% or more ([Han et al., 2022]). The definition of nephrotoxicity caused by colistin sulfate was further confirmed using the Naranjo criteria.

For data set [5] the following is noted: ref Han et al., 2022; cited from earlier work.
Excerpt: as §1, with “... || Nephrotoxicity is the main toxicity of concern with the treatment of polymyxins. However, it is amazing that no patient developed colistin sulfate-related nephrotoxicity in our study. […] Considering that polymyxin B and colistin have very similar molecular structures and PK characteristics, it is reasonable to conclude that the safety threshold of nephrotoxicity of colistin sulfate approaches that of polymyxin B. In the current study, most patient ...” for “...”

Details of data set [6]: method as in 2 sources, one per row (each row's own in cited_ref): ref Yu et al., 2021 ||| ref Wang et al., 2020. The settings on record: cited from earlier work.
For the next data set, the system named is CRO. The settings on record: retrospective study, Chinese patients with CRO infections, median daily dose 1.72 mg/kg; ref Lu et al. (2021); cited from earlier work.
Excerpt: as §1

Structures can show the parent of a compound that is named as a salt. Where two headings read alike, the source gives them in different places. Positions of bridges follow the written chain, without caps; N, C: chain ends. Non-standard residues stand in square brackets, D forms with d. Residues, ends and D or L forms follow the SMILES beside them. *: point of attachment. X1 = CC[C@H](C)CCCCC(=O)*; Dab = NCC[C@H](N)C(=O)O

Consider `CC[C@H](C)CCCCC(=O)N[C@@H](CCN)C(=O)N[C@H](C(=O)N[C@@H](CCN)C(=O)N[C@H]1CCNC(=O)[C@H]([C@@H](C)O)NC(=O)[C@H](CCN)NC(=O)[C@H](CCN)NC(=O)[C@H](CC(C)C)NC(=O)[C@@H](CC(C)C)NC(=O)[C@H](CCN)NC1=O)[C@@H](C)O` [colistin sulfate] (X1-[Dab]T[Dab][Dab][Dab][dL]L[Dab][Dab]T; lactam 4-C), for which the plasma unbound fraction was 0.5 in data set [1] and “about 0.5” in data set [1] (listed as colistin). Also, the “potency compared with polymyxin B” value in data set [2] is reported as “slightly greater potency than polymyxin B”. The “CrCL on CL (θ1)” value in data set [3] (final model, covariate coefficient in CL = 0.994 + 0.525×CrCL/66.47) is 0.525. In addition, in data set [3] (final model, one-compartment), the “TVV (typical value of volume of distribution)” value was determined as 20.7 L. The “TVCL (typical value of clearance)” value in data set [3] (final model, one-compartment, CL = 0.994 + 0.525×CrCL/66.47) is listed as 0.994 L/h. Further, the clearance in data set [3] (human, plasma, iv, base model (Table S1), read-out: TVCL (converted)) is 27.2 mL/min; in data set [3] (human, plasma, iv, mean ± SD across all 42 patients, SD, read-out: CL, individual empirical Bayesian estimate (converted)) it was 29 mL/min. In addition, the Vd in data set [3] (human, plasma, iv, base model (Table S1), read-out: TVV) was 20.6 L; in data set [3] (human, plasma, iv, final model, one-compartment, read-out: TVV (typical value of volume of distribution)), 20.7 L. The AUC(0-t) in data set [3] (human, plasma, iv, mean ± SD, MAP Bayesian estimate per patient with the final PK model, SD, read-out: AUC (AUC0-24 at steady state, AUC0-24,ss)) was 39400 ± 14500 ng·h/mL. Moreover, the “patients who developed AKI during the treatment” value in data set [4] was “two”.

For polymyxin B sulfate, the “Cmin to prevent polymyxin B-related nephrotoxicity” value in data set [5] was “below 3.13 mg/L”. Further, in data set [6] (Chinese adult patients, ref Wang et al., 2020), the “median CL” value was 1.78 L/h. Further, in data set [6] (mean ± SD, adult critically ill patients, 112 concentrations from 32 patients, ref Yu et al., 2021, SD), the CL was 1.75 L/h. The V in data set [6] (one-compartment model, adult critically ill patients, ref Yu et al., 2021) is listed as 20.5 L. Besides, the “patients who achieved clinical success” value in the data set with CRO is on record as 57.6%.
